Laboratory results reported in patent US20070219180A1, “Muscle Relaxtion Accelerator and Therapeutic Agent for Muscular Tissue Diseases Such as Muscle Relaxation Failure” (priority 2004, published 2007).

Assays:
male Wistar rats [1] = test: Experiment 1: left ventricular end diastolic pressure in rats under calcium chloride and norepinephrine infusion; format: in vivo, rat
Experimental: In Experiment 1, the hydrochloride of 4-[3-(4-benzylpiperidine-1-yl) propionyl]-7-methoxy-2,3,4,5-tetrahydro-1,4-benzothiazepine, the compound in the invention (hereinafter called the compound), was used as a pharmaceutically acceptable salt of the 1,4-benzothiazepine derivative. Eight-week old male Wistar rats weighing 300-330 g were used in the study. The rats were anesthetized with 1,000 mg/kg of urethane and 80 mg/kg of α-chloralose by subperitoneal injection, and natural respiration was maintained. In this experiment, 100 mg of the compound was dissolved in 1 ml of dimethylsulfoxide (DMSO) and the resulting DMSO solution of the compound was stored at 4° C. Norepinephrine solution was prepared by dissolving 1 mg of norepinephrine in 41 μl of distilled water, at an infusion speed of 40 μg/kg/min.
Firstly, continuous infusion catheters of calcium chloride solution or norepinephrine solution containing calcium chloride were inserted into the right external jugular veins of the rats, and microchip catheters (SPC-320, Millar) were inserted into the left ventricles via the right common arteries. In addition, test drug infusion catheters were inserted into the right femoral veins.
A 1-lead electrocardiogram and the left ventricular pressure were recorded simultaneously on a personal computer via an A/D converter. In order to determine the left ventricular end diastolic pressure, a pressure equivalent to the R wave of the electrocardiogram was measured at 20 heart beats every minute, and the mean of the pressure so measured was determined as the left ventricular end diastolic pressure, at the time of measuring. In the preparation step, blood pressure, pulse, and electrocardiogram of the rats were monitored for 15 minutes and allowed to stabilize, and then 5% dextrose solution containing calcium chloride (at a concentration based on the weight of the rat) was infused into the right external jugular vein for 20 minutes at 16.6 μl/min (9.0 mg/kg/min of calcium chloride).
Secondly, norepinephrine solution containing calcium chloride without changes in dosage was immediately injected at a rate of 40 μg/kg/min via the right external jugular vein. After the start of the administration, calcium chloride and norepinephrine were then continuously injected in the form of a norepinephrine solution containing calcium chloride. With continuous injection of calcium chloride and norepinephrine (in the form of a norepinephrine solution containing calcium chloride) via the right external jugular vein, 0.2 ml of […] was administered over 30 seconds to the first rat (weight: 300 g) as a control via the right femoral vein, 5 minutes after commencement of injection (intravenous injection) of calcium chloride and norepinephrine (in the form of a norepinephrine solution containing calcium chloride) via the right external jugular vein; this rat was defined as Control 1. Similarly to Control 1, with continuous injection of calcium chloride and norepinephrine (in the form of a norepinephrine solution containing calcium chloride) via the right external jugular vein, 0.2 ml of 1% DMSO solution as a solvent control was administered over 30 seconds to a second rat (weight: 310 g) via the right femoral vein, 5 minutes after commencement of injection (intravenous injection) via the right external jugular vein of calcium chloride and norepinephrine (in the form of a norepinephrine solution containing calcium chloride); this rat was defined as Control 2. […]

male Wistar rats [2] = test: Experiment 2: effect of the compound on blood pressure in rats under calcium chloride and norepinephrine infusion; format: in vivo, rat
Experimental: Eight-week old male Wistar rats weighing 310-330 g were used in this experiment. The rats were anesthetized with 1,000 mg/kg of urethane and 80 mg/kg of α-chloralose by subperitoneal injection, and natural respiration was maintained. In this experiment, 100 mg of the compound was dissolved in 1 ml of dimethylsulfoxide (DMSO) and the resulting DMSO solution of the compound was stored at 4° C. Norepinephrine solution was prepared by dissolving 1 mg of norepinephrine in 41 μl of distilled water.
Similarly to Experiment 1, this experiment was performed at 20 to 25° C. Furthermore, similarly to Experiment 1, continuous infusion catheters of calcium chloride solution or norepinephrine solution containing calcium chloride were inserted into the right external jugular veins of the rats, and microchip catheters (SPC-320, Millar) were inserted into the aorta via the right common arteries.
A 1-lead electrocardiogram and the systolic pressure and diastolic pressure were recorded on a personal computer via an A/D converter. In the preparation step, blood pressure, pulse, and electrocardiogram of the rats were monitored for 15 minutes and allowed to stabilize, and then 5% dextrose solution containing calcium chloride (at a concentration based on the weight of the rat) was infused into the right external jugular vein for 25 minutes at 16.6 μl/min (9.0 mg/kg/min of calcium chloride).
Secondly, norepinephrine solution containing calcium chloride without changes in the dosage regimen was immediately injected at a rate of 40 μg/kg/min (in the form of a norepinephrine solution containing calcium chloride). Five minutes after commencement of injection (intravenous injection) of norepinephrine, continuous injection of calcium chloride and norepinephrine in the form of a norepinephrine solution containing calcium chloride was started, and 0.2 ml of 1% DMSO solution as a solvent control was administered over 30 seconds to the first rat (weight: 310 g) via the right femoral vein; this rat was defined as Control 3. After the solvent control was injected, 1% DMSO solution as a solvent control was additionally administered to Control 3 at 10 μl/min from commencement of solvent control injection to 15 minutes after the start of administration. Similarly to Control 3, 5 minutes after commencement of injection (intravenous injection) of norepinephrine in the form of a norepinephrine solution containing the calcium chloride, continuous injection of the calcium chloride and norepinephrine in the form of a norepinephrine solution containing calcium chloride was started, and 0.2 ml of 1% DMSO solution containing 0.3 mg/kg of the compound was administered over 30 seconds to a second rat (weight: 330 g; referred to as Test drug 3), and 1% DMSO solution containing 0.02 mg/kg of the test drug was then administered for 14 minutes at a rate of 0.02 mg/kg/min. Systolic pressure (mmHg) and diastolic pressure (mmHg) of each rat were measured at 20 heart beats every 2 minutes for 14 minutes after commencement of intravenous injection of the test drug. Mean blood pressure was calculated from the measured systolic pressure (mmHg) and diastolic pressure (mmHg) according to the following formula: mean blood pressure=[…].

## COc1ccc2c(c1)CN(C(=O)CCN1CCC(Cc3ccccc3)CC1)CCS2 [the compound, 4-[3-(4-benzylpiperidine-1-yl)propionyl]-7-methoxy-2,3,4,5-tetrahydro-1,4-benzothiazepine]
Male Wistar rats [1]; 15 minutes after commencement of the test drug, Test drugs 1 and 2
  Left ventricular diastolic pressure compared with Controls 1 and 2 at the same time point: less than half those in Controls 1 and 2
Male Wistar rats [1]; Test drug 1: 0.3 mg/kg i.v. over 30 s + 0.02 mg/kg/min to 15 min, 0 minutes (just before the start of test drug administration)
  Left ventricular end diastolic pressure: 8.9 mmHg
Male Wistar rats [1]; Test drug 1: 0.3 mg/kg i.v. over 30 s + 0.02 mg/kg/min to 15 min, 5 minutes before test drug (just before the start of norepinephrine), baseline
  Left ventricular end diastolic pressure: 8.6 mmHg
Male Wistar rats [1]; Test drug 1: 0.3 mg/kg i.v. over 30 s + 0.02 mg/kg/min to 15 min, 10 minutes before test drug (15 minutes after the start of CaCl2), baseline
  Left ventricular end diastolic pressure: 8.5 mmHg
Male Wistar rats [1]; Test drug 1: 0.3 mg/kg i.v. over 30 s + 0.02 mg/kg/min to 15 min, 15 minutes before test drug (10 minutes after the start of CaCl2), baseline
  Left ventricular end diastolic pressure: 8.6 mmHg
Male Wistar rats [1]; Test drug 1: 0.3 mg/kg i.v. over 30 s + 0.02 mg/kg/min to 15 min, 20 minutes before test drug (5 minutes after the start of CaCl2), baseline
  Left ventricular end diastolic pressure: 7.9 mmHg
Male Wistar rats [1]; Test drug 1: 0.3 mg/kg i.v. over 30 s + 0.02 mg/kg/min to 15 min, 25 minutes before test drug (just after the start of CaCl2), baseline
  Left ventricular end diastolic pressure: 7.8 mmHg
Male Wistar rats [1]; Test drug 1: 0.3 mg/kg i.v. over 30 s + 0.02 mg/kg/min to 15 min, CaCl2 + norepinephrine infusion, 5 minutes after the start of test drug administration
  Left ventricular end diastolic pressure: 10.6 mmHg
Male Wistar rats [1]; Test drug 1: 0.3 mg/kg i.v. over 30 s + 0.02 mg/kg/min to 15 min, CaCl2 + norepinephrine infusion, 10 minutes after the start of test drug administration
  Left ventricular end diastolic pressure: 12.5 mmHg
Male Wistar rats [1]; Test drug 1: 0.3 mg/kg i.v. over 30 s + 0.02 mg/kg/min to 15 min, CaCl2 + norepinephrine infusion, 15 minutes after the start of test drug administration
  Left ventricular end diastolic pressure: 11.8 mmHg
Male Wistar rats [1]; Test drug 1: 0.3 mg/kg i.v. over 30 s + 0.02 mg/kg/min to 15 min, CaCl2 + norepinephrine infusion, 30 minutes before test drug (5 minutes before the start of CaCl2), baseline
  Left ventricular end diastolic pressure: 7.5 mmHg
Male Wistar rats [1]; Test drug 2: 0.3 mg/kg i.v. over 30 s only, 0 minutes (just before the start of test drug administration)
  Left ventricular end diastolic pressure: 9.6 mmHg
Male Wistar rats [1]; Test drug 2: 0.3 mg/kg i.v. over 30 s only, 5 minutes before test drug (just before the start of norepinephrine), baseline
  Left ventricular end diastolic pressure: 9.3 mmHg
Male Wistar rats [1]; Test drug 2: 0.3 mg/kg i.v. over 30 s only, 10 minutes before test drug (15 minutes after the start of CaCl2), baseline
  Left ventricular end diastolic pressure: 9.0 mmHg
Male Wistar rats [1]; Test drug 2: 0.3 mg/kg i.v. over 30 s only, 15 minutes before test drug (10 minutes after the start of CaCl2), baseline
  Left ventricular end diastolic pressure: 9.2 mmHg
Male Wistar rats [1]; Test drug 2: 0.3 mg/kg i.v. over 30 s only, 20 minutes before test drug (5 minutes after the start of CaCl2), baseline
  Left ventricular end diastolic pressure: 8.8 mmHg
Male Wistar rats [1]; Test drug 2: 0.3 mg/kg i.v. over 30 s only, 25 minutes before test drug (just after the start of CaCl2), baseline
  Left ventricular end diastolic pressure: 8.6 mmHg
Male Wistar rats [1]; Test drug 2: 0.3 mg/kg i.v. over 30 s only, CaCl2 + norepinephrine infusion, 5 minutes after the start of test drug administration
  Left ventricular end diastolic pressure: 13.8 mmHg
Male Wistar rats [1]; Test drug 2: 0.3 mg/kg i.v. over 30 s only, CaCl2 + norepinephrine infusion, 10 minutes after the start of test drug administration
  Left ventricular end diastolic pressure: 16.4 mmHg
Male Wistar rats [1]; Test drug 2: 0.3 mg/kg i.v. over 30 s only, CaCl2 + norepinephrine infusion, 15 minutes after the start of test drug administration
  Left ventricular end diastolic pressure: 15.3 mmHg
Male Wistar rats [1]; Test drug 2: 0.3 mg/kg i.v. over 30 s only, CaCl2 + norepinephrine infusion, 30 minutes before test drug (5 minutes before the start of CaCl2), baseline
  Left ventricular end diastolic pressure: 8.4 mmHg
Male Wistar rats [2]; Test drug 3: 0.3 mg/kg i.v. over 30 s then 0.02 mg/kg/min for 14 min, 0 minutes (just before the start of test drug administration)
  Mean blood pressure: 136 mmHg
Male Wistar rats [2]; Test drug 3: 0.3 mg/kg i.v. over 30 s then 0.02 mg/kg/min for 14 min, 5 minutes before test drug (just before the start of norepinephrine), baseline
  Mean blood pressure: 125 mmHg
Male Wistar rats [2]; Test drug 3: 0.3 mg/kg i.v. over 30 s then 0.02 mg/kg/min for 14 min, 30 minutes before test drug (5 minutes before the start of CaCl2), baseline
  Mean blood pressure: 122 mmHg
Male Wistar rats [2]; Test drug 3: 0.3 mg/kg i.v. over 30 s then 0.02 mg/kg/min, CaCl2 + norepinephrine infusion, 2 minutes after the start of test drug administration
  Mean blood pressure: 149 mmHg
Male Wistar rats [2]; Test drug 3: 0.3 mg/kg i.v. over 30 s then 0.02 mg/kg/min, CaCl2 + norepinephrine infusion, 4 minutes after the start of test drug administration
  Mean blood pressure: 162 mmHg
Male Wistar rats [2]; Test drug 3: 0.3 mg/kg i.v. over 30 s then 0.02 mg/kg/min, CaCl2 + norepinephrine infusion, 6 minutes after the start of test drug administration
  Mean blood pressure: 141 mmHg
Male Wistar rats [2]; Test drug 3: 0.3 mg/kg i.v. over 30 s then 0.02 mg/kg/min, CaCl2 + norepinephrine infusion, 8 minutes after the start of test drug administration
  Mean blood pressure: 139 mmHg
Male Wistar rats [2]; Test drug 3: 0.3 mg/kg i.v. over 30 s then 0.02 mg/kg/min, CaCl2 + norepinephrine infusion, 10 minutes after the start of test drug administration
  Mean blood pressure: 135 mmHg
Male Wistar rats [2]; Test drug 3: 0.3 mg/kg i.v. over 30 s then 0.02 mg/kg/min, CaCl2 + norepinephrine infusion, 12 minutes after the start of test drug administration
  Mean blood pressure: 136 mmHg
Male Wistar rats [2]; Test drug 3: 0.3 mg/kg i.v. over 30 s then 0.02 mg/kg/min, CaCl2 + norepinephrine infusion, 14 minutes after the start of test drug administration
  Mean blood pressure: 134 mmHg
